Laboratory results from US11292796B2 (SIGNAL PHARMACEUTICALS, LLC, priority 2008, dated 2022).

Biological target: T1, mTOR (Homo sapiens, UniProt P42345)
T1 construct: purchased Invitrogen PR8683A
Experiment: mTOR HTR-FRET assay
Assay type: biochemical
Details: read-out: Act. Level (IC50 in mTor HTR-FRET assay)
Experimental: The following is an example of an assay that can be used to determine the mTOR inhibitory activity of a test compound. Heteroaryl Compounds were dissolved in DMSO and prepared as 10 mM stocks and diluted appropriately for the experiments. Reagents were prepared as follows:
“Simple TOR buffer” (used to dilute high glycerol TOR fraction): 10 mM Tris pH 7.4, 100 mM NaCl, 0.1% Tween-20, 1 mM DTT. Invitrogen mTOR (cat #PR8683A) was diluted in this buffer to an assay concentration of 0.200 μg/mL.
To 20 μL of the Simple mTor buffer is added 0.5 μL of test compound in DMSO. To initiate the reaction 5 μL of ATP/Substrate solution was added to 20 μL of the Simple TOR buffer solution (control) and to the compound solution prepared above.

T1 sequence (P42345 1360-2549 limits assumed): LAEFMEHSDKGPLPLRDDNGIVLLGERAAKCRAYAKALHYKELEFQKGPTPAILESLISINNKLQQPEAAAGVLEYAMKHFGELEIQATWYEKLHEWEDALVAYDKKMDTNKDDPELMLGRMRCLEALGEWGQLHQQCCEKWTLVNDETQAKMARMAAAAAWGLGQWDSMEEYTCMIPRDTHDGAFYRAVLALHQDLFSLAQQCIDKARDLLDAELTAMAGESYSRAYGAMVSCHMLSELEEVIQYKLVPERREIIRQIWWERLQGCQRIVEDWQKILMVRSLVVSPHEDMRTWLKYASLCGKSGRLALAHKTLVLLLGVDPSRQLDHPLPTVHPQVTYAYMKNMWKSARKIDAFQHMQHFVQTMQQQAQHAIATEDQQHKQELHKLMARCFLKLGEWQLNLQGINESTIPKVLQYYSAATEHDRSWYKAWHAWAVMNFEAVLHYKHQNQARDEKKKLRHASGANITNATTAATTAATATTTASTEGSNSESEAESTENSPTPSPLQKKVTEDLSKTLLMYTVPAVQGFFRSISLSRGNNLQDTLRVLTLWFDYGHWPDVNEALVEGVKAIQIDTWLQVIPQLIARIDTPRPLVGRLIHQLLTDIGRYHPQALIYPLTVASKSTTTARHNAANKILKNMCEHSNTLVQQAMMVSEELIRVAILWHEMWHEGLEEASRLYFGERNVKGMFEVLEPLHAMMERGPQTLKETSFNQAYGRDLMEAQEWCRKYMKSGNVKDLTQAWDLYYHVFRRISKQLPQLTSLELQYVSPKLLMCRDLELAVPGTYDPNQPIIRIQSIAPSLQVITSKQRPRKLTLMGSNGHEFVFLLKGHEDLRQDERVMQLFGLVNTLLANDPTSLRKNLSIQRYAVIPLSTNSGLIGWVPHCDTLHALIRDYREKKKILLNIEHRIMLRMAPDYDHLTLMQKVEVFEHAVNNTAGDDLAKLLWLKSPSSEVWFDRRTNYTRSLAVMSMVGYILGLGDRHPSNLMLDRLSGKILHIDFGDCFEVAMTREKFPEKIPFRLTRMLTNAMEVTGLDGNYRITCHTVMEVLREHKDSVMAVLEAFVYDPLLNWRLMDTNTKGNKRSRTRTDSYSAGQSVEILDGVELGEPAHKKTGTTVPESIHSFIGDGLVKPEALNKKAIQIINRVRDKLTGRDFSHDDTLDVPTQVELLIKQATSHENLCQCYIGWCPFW

SMILES	IC50
CO[C@@H]1CC[C@H](N2CC(=O)Nc3ncc(-c4ccc(C(C)(C)O)nc4)nc32)C1 [Example 52, 6-(6-(2-hydroxypropan-2-yl)pyridin-3-yl)-4-((1S,3R)-3-methoxycyclopentyl)-3,4-dihydropyrazino[2,3-b]pyrazin-2(1H)-one]	0.005 to 250 nM
CO[C@H]1CC[C@H](CN2CC(=O)Nc3ncc(-c4ccc(C(C)(C)O)nc4)nc32)C1 [Example 53, 6-(6-(2-hydroxypropan-2-yl)pyridin-3-yl)-4-(((1S,3S)-3-methoxycyclopentyl)methyl)-3,4-dihydropyrazino[2,3-b]pyrazin-2(1H)-one]	0.005 to 250 nM
CO[C@@H]1CC[C@@H](CN2CC(=O)Nc3ncc(-c4ccc(C(C)(C)O)nc4)nc32)C1 [Example 54, 6-(6-(2-hydroxypropan-2-yl)pyridin-3-yl)-4-(((1R,3R)-3-methoxycyclopentyl)methyl)-3,4-dihydropyrazino[2,3-b]pyrazin-2(1H)-one]	0.005 to 250 nM
CO[C@H]1CC[C@H](N2CC(=O)Nc3ncc(-c4ccc(C(C)(C)O)nc4)nc32)C1 [Example 55, 6-(6-(2-hydroxypropan-2-yl)pyridin-3-yl)-4-((1S,3S)-3-methoxycyclopentyl)-3,4-dihydropyrazino[2,3-b]pyrazin-2(1H)-one]	1000 to 10000 nM
CO[C@@H]1CC[C@@H](N2CC(=O)Nc3ncc(-c4ccc(C(C)(C)O)nc4)nc32)C1 [Example 56, 6-(6-(2-hydroxypropan-2-yl)pyridin-3-yl)-4-((1R,3R)-3-methoxycyclopentyl)-3,4-dihydropyrazino[2,3-b]pyrazin-2(1H)-one]	0.005 to 250 nM
CO[C@H]1CC[C@@H](CN2CC(=O)Nc3ncc(-c4ccc(C(C)(C)O)nc4)nc32)C1 [Example 57, 6-(6-(2-hydroxypropan-2-yl)pyridin-3-yl)-4-(((1R,3S)-3-methoxycyclopentyl)methyl)-3,4-dihydropyrazino[2,3-b]pyrazin-2(1H)-one]	0.005 to 250 nM
CO[C@@H]1CC[C@H](CN2CC(=O)Nc3ncc(-c4ccc(C(C)(C)O)nc4)nc32)C1 [Example 58, 6-(6-(2-hydroxypropan-2-yl)pyridin-3-yl)-4-(((1S,3R)-3-methoxycyclopentyl)methyl)-3,4-dihydropyrazino[2,3-b]pyrazin-2(1H)-one]	0.005 to 250 nM
COCCN1CC(=O)Nc2ncc(-c3ccc(-c4nnc[nH]4)c(F)c3)nc21 [Example 59, 6-(3-fluoro-4-(4H-1,2,4-triazol-3-yl)phenyl)-4-(2-methoxyethyl)-3,4-dihydropyrazino[2,3-b]pyrazin-2(1H)-one]	0.005 to 250 nM
O=C1CN(CCC2CCOCC2)c2nc(-c3ccc(-c4nnc[nH]4)c(F)c3)cnc2N1 [Example 60, 6-(3-fluoro-4-(4H-1,2,4-triazol-3-yl)phenyl)-4-(2-(tetrahydro-2H-pyran-4-yl)ethyl)-3,4-dihydropyrazino[2,3-b]pyrazin-2(1H)-one]	0.005 to 250 nM
Cc1cc(-c2nnc[nH]2)ccc1-c1cnc2c(n1)N(CC1CCOCC1)C1(CCCC1)C(=O)N2 [Example 61, 7′-(2-methyl-4-(4H-1,2,4-triazol-3-yl)phenyl)-1′-((tetrahydro-2H-pyran-4-yl)methyl)-1′H-spiro[cyclopentane-1,2′-pyrazino[2,3-b]pyrazin]-3′(4′H)-one]	0.005 to 250 nM
Cc1cc(-c2nnc[nH]2)ccc1-c1cnc2c(n1)N(CC1CCOCC1)C1(CCC1)C(=O)N2 [Example 62, 7′-(2-methyl-4-(4H-1,2,4-triazol-3-yl)phenyl)-1′-((tetrahydro-2H-pyran-4-yl)methyl)-1′H-spiro[cyclobutane-1,2′-pyrazino[2,3-b]pyrazin]-3′(4′H)-one]	0.005 to 250 nM
CC(C)(O)c1ccc(-c2cnc3c(n2)N(CC2CC2)CC(=O)N3)cn1 [Example 63, 4-(cyclopropylmethyl)-6-(6-(2-hydroxypropan-2-yl)pyridin-3-yl)-3,4-dihydropyrazino[2,3-b]pyrazin-2(1H)-one]	250 to 500 nM
Cc1cc(-c2nnc[nH]2)ccc1-c1cnc2c(n1)NC1(CCCC1)C(=O)N2 [Example 64, 7′-(2-methyl-4-(4H-1,2,4-triazol-3-yl)phenyl)-1′H-spiro[cyclopentane-1,2′-pyrazino[2,3-b]pyrazin]-3′(4′H)-one]	250 to 500 nM
Cc1cc(-c2nnc[nH]2)ccc1-c1cnc2c(n1)NC1(CCC1)C(=O)N2 [Example 65, 7′-(2-methyl-4-(4H-1,2,4-triazol-3-yl)phenyl)-1′H-spiro[cyclobutane-1,2′-pyrazino[2,3-b]pyrazin]-3′(4′H)-one]	250 to 500 nM
Cc1cc(-c2nnc[nH]2)ccc1-c1cnc2c(n1)NC1(CC1)C(=O)N2 [Example 66, 7′-(2-methyl-4-(4H-1,2,4-triazol-3-yl)phenyl)-1′H-spiro[cyclopropane-1,2′-pyrazino[2,3-b]pyrazin]-3′(4′H)-one]	0.005 to 250 nM
O=C1CN(C[C@H]2CCCO2)c2nc(-c3ccc(-c4nnc[nH]4)cc3)cnc2N1 [Example 67, (R)-6-(4-(4H-1,2,4-triazol-3-yl)phenyl)-4-((tetrahydrofuran-2-yl)methyl)-3,4-dihydropyrazino[2,3-b]pyrazin-2(1H)-one]	0.005 to 250 nM

SMILES	IC50
O=C1CN(C[C@@H]2CCCO2)c2nc(-c3ccc(-c4nnc[nH]4)cc3)cnc2N1 [Example 68, (S)-6-(4-(4H-1,2,4-triazol-3-yl)phenyl)-4-((tetrahydrofuran-2-yl)methyl)-3,4-dihydropyrazino[2,3-b]pyrazin-2(1H)-one]	0.005 to 250 nM
O=C1CN(CCC2CCOCC2)c2nc(-c3ccc4[nH]ncc4c3)cnc2N1 [Example 69, 6-(1H-indazol-5-yl)-4-(2-(tetrahydro-2H-pyran-4-yl)ethyl)-3,4-dihydropyrazino[2,3-b]pyrazin-2(1H)-one]	250 to 500 nM
NC(=O)c1ccc(-c2cnc3c(n2)N(CCC2CCOCC2)CC(=O)N3)cc1 [Example 70, 4-(6-oxo-8-(2-(tetrahydro-2H-pyran-4-yl)ethyl)-5,6,7,8-tetrahydropyrazino[2,3-b]pyrazin-2-yl)benzamide]	1000 to 10000 nM
COCCN1c2nc(-c3ccc(-c4nnc[nH]4)cc3C)cnc2NC(=O)C1(C)C [Example 71, 4-(2-methoxyethyl)-3,3-dimethyl-6-(2-methyl-4-(4H-1,2,4-triazol-3-yl)phenyl)-3,4-dihydropyrazino[2,3-b]pyrazin-2(1H)-one]	0.005 to 250 nM
CCN1c2nc(-c3ccc(-c4nnc[nH]4)cc3C)cnc2NC(=O)C1(C)C [Example 72, 4-ethyl-3,3-dimethyl-6-(2-methyl-4-(4H-1,2,4-triazol-3-yl)phenyl)-3,4-dihydropyrazino[2,3-b]pyrazin-2(1H)-one]	0.005 to 250 nM
Cc1cc(-c2nnc[nH]2)ccc1-c1cnc2c(n1)NCC(=O)N2 [Example 73, 6-(2-methyl-4-(4H-1,2,4-triazol-3-yl)phenyl)-3,4-dihydropyrazino[2,3-b]pyrazin-2(1H)-one]	250 to 500 nM
Cc1nc(-c2nnc[nH]2)ccc1-c1cnc2c(n1)N(CC1CCOCC1)C(C)(C)C(=O)N2 [Example 74, 3,3-dimethyl-6-(2-methyl-6-(4H-1,2,4-triazol-3-yl)pyridin-3-yl)-4-((tetrahydro-2H-pyran-4-yl)methyl)-3,4-dihydropyrazino[2,3-b]pyrazin-2(1H)-one]	0.005 to 250 nM
C[C@@H](O)c1ccc(-c2cnc3c(n2)N(CCC2CCOCC2)CC(=O)N3)cn1 [Example 75, (R)-6-(6-(1-hydroxyethyl)pyridin-3-yl)-4-(2-(tetrahydro-2H-pyran-4-yl)ethyl)-3,4-dihydropyrazino[2,3-b]pyrazin-2(1H)-one]	0.005 to 250 nM
Cc1cc(-c2nnc[nH]2)ccc1-c1cnc2c(n1)N(CC1CCOCC1)C(C)(C)C(=O)N2 [Example 76, 3,3-dimethyl-6-(2-methyl-4-(4H-1,2,4-triazol-3-yl)phenyl)-4-((tetrahydro-2H-pyran-4-yl)methyl)-3,4-dihydropyrazino[2,3-b]pyrazin-2(1H)-one]	0.005 to 250 nM
CO[C@H]1CC[C@H](N2CC(=O)Nc3ncc(-c4cnc(C(C)(C)O)cc4C)nc32)CC1 [Example 77, 6-(6-(2-hydroxypropan-2-yl)-4-methylpyridin-3-yl)-4-(trans-4-methoxycyclohexyl)-3,4-dihydropyrazino[2,3-b]pyrazin-2(1H)-one]	0.005 to 250 nM
Cc1cc(C(C)(C)O)ncc1-c1cnc2c(n1)N(CC1CCOCC1)CC(=O)N2 [Example 78, 6-(6-(2-hydroxypropan-2-yl)-4-methylpyridin-3-yl)-4-((tetrahydro-2H-pyran-4-yl)methyl)-3,4-dihydropyrazino[2,3-b]pyrazin-2(1H)-one]	0.005 to 250 nM
Cc1cc(-c2nnc[nH]2)ccc1-c1cnc2c(n1)NC(C)(C)C(=O)N2 [Example 79, 3,3-dimethyl-6-(2-methyl-4-(4H-1,2,4-triazol-3-yl)phenyl)-3,4-dihydropyrazino[2,3-b]pyrazin-2(1H)-one]	250 to 500 nM
Cc1nc(-c2nnc[nH]2)ccc1-c1cnc2c(n1)N(CCC1CCOCC1)C(C)(C)C(=O)N2 [Example 80, 3,3-dimethyl-6-(2-methyl-6-(4H-1,2,4-triazol-3-yl)pyridin-3-yl)-4-(2-(tetrahydro-2H-pyran-4-yl)ethyl)-3,4-dihydropyrazino[2,3-b]pyrazin-2(1H)-one]	0.005 to 250 nM
Cc1nc(C(C)(C)O)ccc1-c1cnc2c(n1)N(CC1CCOCC1)CC(=O)N2 [Example 81, 6-(6-(2-hydroxypropan-2-yl)-2-methylpyridin-3-yl)-4-((tetrahydro-2H-pyran-4-yl)methyl)-3,4-dihydropyrazino[2,3-b]pyrazin-2(1H)-one]	0.005 to 250 nM
CO[C@H]1CC[C@H](N2CC(=O)Nc3ncc(-c4ccc(C(C)(C)O)nc4C)nc32)CC1 [Example 82, 6-(6-(2-hydroxypropan-2-yl)-2-methylpyridin-3-yl)-4-(trans-4-methoxycyclohexyl)-3,4-dihydropyrazino[2,3-b]pyrazin-2(1H)-one]	250 to 500 nM
